The experiment has as its target T1, full length Keap1 protein / full length NRF2 protein (Homo sapiens, UniProt Q14145).
T1 construct: full length NRF2 protein and full length Keap1 protein (Keap1 exists a dimer) are used; His
Description: NRF2-Keap1 TR-FRET Low Protein Assay. The format is binding. The text has this: In the NRF2-Keap1 TR-FRET (time-resolved fluorescence resonance energy transfer) low protein assay, full length NRF2 protein and full length Keap1 protein (Keap1 exists a dimer) are used. The assay detects a compound's ability to displace the binding of Keap1 FlagHis with biotinylated Avi-NRF2 protein. Biotin-NRF2 binds to streptavidin-europium (a component of the detection mix) and Keap1 FlagHis is recognized by anti-Flag APC (allophycocyanin) antibody (also a component of the detection mix). If binding occurs between the two proteins, there will be an energy transfer from the Eu+3 (donor) at 615 nm to the APC (acceptor) at 665 nm. A potential NRF2 inhibitor will cause a reduction in the TR-FRET signal by interfering with the binding of Keap1 to NRF2.
Ten nanoliters of 100× compound dose response curves (serial 3-fold dilutions) in DMSO were stamped using an Echo liquid handling system (Labcyte) into 384-well, low volume, black assay plates (Greiner, #784076), with DMSO in columns 6 and 18. An additional 90 nl DMSO was added to each well, to bring the total volume to 100 nl per well. The top concentration of compound was located in columns 1 and 13, with the serial dilutions going across the row. All reagents were diluted in assay buffer (50 mM Tris, pH 8.0, 5 mM MgCl2, 100 mM NaCl, 0.005% BSA, 1 mM DTT, and 2 mM CHAPS. The BSA, DTT, and CHAPS were added to the assay buffer on the day of assay. Using a Multidrop Combi (Thermo Electron Corporation) equipped with a metal tip dispenser, 5 ul of 1.25 nM Keap1 FlagHis protein was added to all wells of the compound plate, with the exception of the wells in column 18. Wells in column 18 received 5 ul of assay buffer instead. Plates were centrifuged at 500 rpm for 1 minute, covered with a plate lid, and incubated at 37° C. for 2.25 hours. Plates were then removed from the incubator and allowed to cool to RT for 15 minutes. Five microliters of 2.5 nM biotin-NRF2 protein was then added to all wells of the plates and the plates were spun at 500 rpm for 1 minute, followed by incubating at 4° C. for 1.25 hours. The plates were then allowed to warm to RT for 15 minutes, followed by the addition of 10 ul of detection mix (1 nM Streptavidin Eu+W1024 and 5 ug/ml mouse anti-DYKDDDDK IgG conjugated to SureLight APC antibody; both from Columbia Biosciences) to all wells. Plates were spun at 500 rpm for 1 minute, incubated for 1 hour at RT, and read on an Envision plate reader using a 320 nm excitation filter and 615 nm and 665 nm emission filters. Compound response (% inhibition) and potency (pIC50) were calculated based on the ratio of the two emissions (665 nm/615 nm) and then the transformed data was normalized against controls in the assay (control 1=1% DMSO in the presence of NRF2 and Keap1 protein and control 2=1% DMSO in the presence of only the NRF2 protein). Data analysis was handled using the software package Abase XE (Surrey, United Kingdom). The % inhibition values were calculated from the ratio (transformed) data by the equation:
100−(100*(compound response−average control 2)/(average control 1−average control2)).
For calculation of pIC50s, Abase XE used a four parameter equation.
IC50s<10 nM (+++++), IC50s 10-100 nM (++++), IC50s 100 nM-1 uM (+++), IC50s 1-10 uM (++). and IC50s 10 uM-100 uM (+), IC50s>100 uM (−), or were not determined (ND).
For orientation: Time-resolved FRET reads energy transfer from a long-lived donor to a nearby acceptor.

T1 sequence (Q14145 whole entry): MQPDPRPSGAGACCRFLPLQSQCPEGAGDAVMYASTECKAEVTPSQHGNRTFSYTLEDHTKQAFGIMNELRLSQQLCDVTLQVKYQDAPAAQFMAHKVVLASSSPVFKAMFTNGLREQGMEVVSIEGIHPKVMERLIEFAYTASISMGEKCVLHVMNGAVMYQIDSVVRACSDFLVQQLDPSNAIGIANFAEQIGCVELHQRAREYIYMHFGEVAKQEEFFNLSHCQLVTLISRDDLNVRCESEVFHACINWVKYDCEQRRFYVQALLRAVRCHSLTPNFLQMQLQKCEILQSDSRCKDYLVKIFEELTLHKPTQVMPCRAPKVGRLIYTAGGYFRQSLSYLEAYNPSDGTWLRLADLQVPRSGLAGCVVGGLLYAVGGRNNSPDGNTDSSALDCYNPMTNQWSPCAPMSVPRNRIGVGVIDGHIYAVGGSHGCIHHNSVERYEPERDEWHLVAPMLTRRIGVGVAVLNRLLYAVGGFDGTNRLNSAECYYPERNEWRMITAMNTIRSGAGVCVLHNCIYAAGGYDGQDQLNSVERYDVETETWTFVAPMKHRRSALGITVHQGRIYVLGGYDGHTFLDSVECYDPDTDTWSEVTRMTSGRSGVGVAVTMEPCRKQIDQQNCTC

`Cn1cc([C@@H]2C[C@H]2c2c(C(=O)O)cnn2-c2cccc(Cn3ccnc3CN3CCCCC3)c2)nn1` (racemic) [Example 24] showed an EC50 of 100 to 1000 nM. To `CC[C@@H]1CN(Cc2cccc(-n3ncc(C(=O)O)c3[C@@H]3C[C@H]3c3cn(CC(F)(F)F)nn3)c2)S(=O)(=O)c2ccccc2O1` [Example 29] belongs 10 to 100 nM; to `CN(Cc1cccc(-n2ncc(C(=O)O)c2[C@@H]2C[C@H]2c2cn(C)nn2)c1)S(=O)(=O)c1ccc(-c2ccccc2)cc1` (relative stereo) [Example 39, 5-((trans)-2-(1-methyl-1H-1,2,3-triazol-4-yl)cyclo-propyl)-1-(3-((N-methyl-[1,1′-biphenyl]-4-ylsulfonamido)-methyl)phenyl)-1H-pyrazole-4-carboxylic acid], 100 to 1000 nM; to `CCC1c2ccccc2OC(C)(C)CN1Cc1cccc(-n2ncc(C(=O)O)c2[C@@H]2C[C@H]2c2cn(C)nn2)c1` (stereo partly shown) [Example 12], 10000 to 100000 nM.

`Cc1cc([C@@H]2C[C@H]2c2c(C(=O)O)cnn2-c2cccc(CN3C[C@@H](C)Cc4cc(C(F)(F)F)ccc4S3(=O)=O)c2)on1` (racemic) [Example 57, 1-(3-(((S)-4-Methyl-1,1-dioxido-7-(trifluoromethyl)-4,5-dihydrobenzo[f][1,2]thiazepin-2(3H)-yl)methyl)phenyl)-5-(trans-2-(3-methylisoxazol-5-yl)cyclopropyl)-1H-pyrazole-4-carboxylic acid] showed an EC50 of 1000 to 10000 nM. On to `CC[C@@H]1CN(Cc2cccc(-n3ncc(C(=O)O)c3[C@@H]3C[C@H]3c3cn(C)nn3)c2)Cc2ccccc2O1` (racemic) [Example 14], for which the EC50 was in the range of 1000 to 10000 nM. `CC[C@H]1Cc2ccccc2CN(Cc2cccc(-n3ncc(C(=O)O)c3[C@@H]3C[C@H]3c3cn(C)nn3)c2)C1` [Example 11] showed an EC50 of 100 to 1000 nM. Take `CN(Cc1cccc(-n2ncc(C(=O)O)c2[C@@H]2C[C@H]2c2cn(C)nn2)c1)S(=O)(=O)c1ccccc1Oc1ccccc1` (relative stereo) [Example 38, 5-((trans)-2-(1-methyl-1H-1,2,3-triazol-4-yl)cyclo-propyl)-1-(3-((N-methyl-2-phenoxyphenyl-sulfonamido)-methyl)phenyl)-1H-pyrazole-4-carboxylic acid]: the half-maximal effective concentration (EC50) lay in the range of 100 to 1000 nM. In the case of `CCCCCCN(Cc1cccc(-n2ncc(C(=O)O)c2[C@@H]2C[C@H]2c2cn(C)nn2)c1)S(=O)(=O)c1cccc(-c2ccccc2)c1` (racemic) [Example 34, 1-(3-((N-hexyl-[1,1′-biphenyl]-3-ylsulfonamido)methyl)phenyl)-5-((trans)-2-(1-methyl-1H-1,2,3-triazol-4-yl)cyclopropyl)-1H-pyrazole-4-carboxylic acid], the EC50 was 10 to 100 nM. As to `CC[C@H]1Cc2ccccc2S(=O)(=O)N(Cc2cccc(-n3ncc(C(=O)O)c3[C@@H]3C[C@H]3c3cn(C)nn3)c2)C1` [Example 4], the EC50 lay in the range of 10 to 100 nM. On to `CN(Cc1cccc(-n2ncc(C(=O)O)c2[C@@H]2C[C@H]2c2cn(C)nn2)c1)S(=O)(=O)c1ccccc1OC(F)(F)F` (racemic) [Example 46, 5-((trans)-2-(1-methyl-1H-1,2,3-triazol-4-yl)cyclopropyl)-1-(3-((N-methyl-2-(trifluoromethoxy)phenylsulfonamido)methyl)phenyl)-1H-pyrazole-4-carboxylic acid], for which the concentration for a half-maximal effect (EC50) lay in the range of 1000 to 10000 nM. To `C[C@H]1Cc2ccccc2S(=O)(=O)N(Cc2cccc(-n3ncc(C(=O)O)c3[C@@H]3C[C@H]3c3cnn(C)c3)c2)C1` [Example 32, 1-(3-(((S)-4-methyl-1,1-dioxido-4,5-dihydrobenzo[f][1,2]thiazepin-2(3H)-yl)methyl)-phenyl)-5-(trans-2-(1-methyl-1H-pyrazol-4-yl)cyclopropyl)-1H-pyrazole-4-carboxylic acid] belongs 1000 to 10000 nM; to `CN(Cc1cccc(-n2ncc(C(=O)O)c2[C@@H]2C[C@H]2c2cn(C)nn2)c1)S(=O)(=O)c1c(Cl)cccc1C(F)(F)F` (racemic) [Example 41, 1-(3-((2-chloro-N-methyl-6-(trifluoro-methyl)phenyl-sulfonamido)-methyl)phenyl)-5-((trans)-2-(1-methyl-1H-1,2,3-triazol-4-yl)cyclo-propyl)-1H-pyrazole-4-carboxylic acid], 1000 to 10000 nM. The molecule `Cn1cc([C@@H]2C[C@H]2c2c(C(=O)O)cnn2-c2cccc(CN3Cc4ncccc4OC(C)(C)C3)c2)nn1` (racemic) [Example 9] had an EC50 of 100 to 1000 nM. To `CCCN(Cc1cccc(-n2ncc(C(=O)O)c2[C@@H]2C[C@H]2c2cn(C)nn2)c1)S(=O)(=O)c1ccccc1C` (racemic) [Example 50, 5-((trans)-2-(1-methyl-1H-1,2,3-triazol-4-yl)cyclopropyl)-1-(3-((2-methyl-N-propylphenylsulfonamido)methyl)phenyl)-1H-pyrazole-4-carboxylic acid] belongs 1000 to 10000 nM; to `COc1ccccc1S(=O)(=O)NCc1cccc(-n2ncc(C(=O)O)c2[C@@H]2C[C@H]2c2cn(C)nn2)c1` (racemic) [Example 52, 1-(3-((2-methoxyphenylsulfonamido)methyl)phenyl)-5-((trans)-2-(1-methyl-1H-1,2,3-triazol-4-yl)cyclopropyl)-1H-pyrazole-4-carboxylic acid], 1000 to 10000 nM. In turn, `COc1cc([N+](=O)[O-])ccc1S(=O)(=O)N(C)Cc1cccc(-n2ncc(C(=O)O)c2[C@@H]2C[C@H]2c2cn(C)nn2)c1` (racemic) [Example 44, 1-(3-((2-methoxy-N-methyl-4-nitrophenylsulfonamido)methyl)phenyl)-5-((trans)-2-(1-methyl-1H-1,2,3-triazol-4-yl)cyclopropyl)-1H-pyrazole-4-carboxylic acid] gave an EC50 of 1000 to 10000 nM. Then `C[C@H]1Cc2cc(C(F)(F)F)ccc2S(=O)(=O)N(Cc2cccc(-n3ncc(C(=O)O)c3[C@@H]3C[C@H]3c3cn(C)nn3)c2)C1` (racemic) [Example 19, 1-(3-((4-methyl-1,1-dioxido-7-(trifluoromethyl)-4,5-dihydro-benzo[f][1,2]thiazepin-2(3H)-yl)methyl)phenyl)-5-((trans)-2-(1-methyl-1H-1,2,3-triazol-4-yl)cyclopropyl)-1H-pyrazole-4-carboxylic acid], with 1000 to 10000 nM; and `CCCCCCN(Cc1cccc(-n2ncc(C(=O)O)c2[C@@H]2C[C@H]2c2cnn(C)c2)c1)S(=O)(=O)c1ccccc1C` (racemic) [Example 56], with 10000 to 100000 nM; and `C[C@@H]1Cc2cc(C(F)(F)F)ccc2S(=O)(=O)N(Cc2cccc(-n3ncc(C(=O)O)c3[C@@H]3C[C@H]3c3cnn(C)c3)c2)C1` [Example 33, 1-(3-(((R)-4-methyl-1,1-dioxido-7-(trifluoromethyl)-4,5-dihydro-benzo[f][1,2]thiazepin-2(3H)-yl)methyl)phenyl)-5-(trans-2-(1-methyl-1H-pyrazol-4-yl)cyclopropyl)-1H-pyrazole-4-carboxylic acid], with 10000 to 100000 nM. On to `CC[C@@H]1CN(Cc2cccc(-n3ncc(C(=O)O)c3[C@@H]3C[C@H]3c3cnn(C)c3)c2)S(=O)(=O)c2ccccc2O1` [Example 31, 1-(3-(((R)-4-ethyl-1,1-dioxido-3,4-dihydro-2H-benzo[b][1,4,5]oxathiazepin-2-yl)methyl)-phenyl)-5-(trans-2-(1-methyl-1H-pyrazol-4-yl)cyclopropyl)-1H-pyrazole-4-carboxylic acid], for which the EC50 lay in the range of 1000 to 10000 nM. In turn, `C[C@H]1Cc2ccc(C(F)(F)F)cc2S(=O)(=O)N(Cc2cccc(-n3ncc(C(=O)O)c3[C@@H]3C[C@H]3c3cn(C)nn3)c2)C1` (racemic) [Example 16, 1-(3-((4-methyl-1,1-dioxido-8-(trifluoromethyl)-4,5-dihydro-benzo[f][1,2]thiazepin-2(3H)-yl)methyl)phenyl)-5-((trans)-2-(1-methyl-1H-1,2,3-triazol-4-yl)cyclopropyl)-1H-pyrazole-4-carboxylic acid] showed an EC50 of 10 to 100 nM.

For orientation: EC50 means the concentration giving half of the maximal effect. High values mean lower potency in that assay, low ones higher potency in that assay.

These data come from US20200071310A1, “N-ARYL PYRAZOLES AS NRF2 REGULATORS” (GLAXOSMITHKLINE INTELLECTUAL PROPERTY DEVELOPMENT LIMITED, priority 2016, published 2020).
